Measured values as given in US10844064B2, “sGC stimulators” (Cyclerion Therapeutics, Inc., priority 2014, dated 2020).
Where “and” joins values, the source holds several entries; their conditions need not be identical. Identical values can stand only once.

Columns and labels:
[1] = system: lambs with acute pulmonary hypertension; conditions: inhaled microparticles, awake lambs, cited from earlier work; for pulmonary vasodilation: U-46619 infusion to mean pulmonary arterial pressure 35 mm Hg; for effect on mean arterial pressure / systemic arterial oxygenation / transpulmonary cGMP release: U-46619 infusion
sGC enzyme = target: T1, sGC enzyme (Homo sapiens, UniProt Q02108+Q02153); assay: cGMP GloSensor cell-based assay, 384-well format (Example 2B); conditions: HEK293 GloSensor 40F cGMP cells, 10 μM DETA-NONOate; 50% of high control response (Compound Y); read-out: sGC_HEK_GloSensor EC50/IC50 Abs (Norm) (nM) Binned
T1 construct: host or cells: HEK293 expressing GloSensor 40F cGMP
T1 sequence (Q02108 1-690): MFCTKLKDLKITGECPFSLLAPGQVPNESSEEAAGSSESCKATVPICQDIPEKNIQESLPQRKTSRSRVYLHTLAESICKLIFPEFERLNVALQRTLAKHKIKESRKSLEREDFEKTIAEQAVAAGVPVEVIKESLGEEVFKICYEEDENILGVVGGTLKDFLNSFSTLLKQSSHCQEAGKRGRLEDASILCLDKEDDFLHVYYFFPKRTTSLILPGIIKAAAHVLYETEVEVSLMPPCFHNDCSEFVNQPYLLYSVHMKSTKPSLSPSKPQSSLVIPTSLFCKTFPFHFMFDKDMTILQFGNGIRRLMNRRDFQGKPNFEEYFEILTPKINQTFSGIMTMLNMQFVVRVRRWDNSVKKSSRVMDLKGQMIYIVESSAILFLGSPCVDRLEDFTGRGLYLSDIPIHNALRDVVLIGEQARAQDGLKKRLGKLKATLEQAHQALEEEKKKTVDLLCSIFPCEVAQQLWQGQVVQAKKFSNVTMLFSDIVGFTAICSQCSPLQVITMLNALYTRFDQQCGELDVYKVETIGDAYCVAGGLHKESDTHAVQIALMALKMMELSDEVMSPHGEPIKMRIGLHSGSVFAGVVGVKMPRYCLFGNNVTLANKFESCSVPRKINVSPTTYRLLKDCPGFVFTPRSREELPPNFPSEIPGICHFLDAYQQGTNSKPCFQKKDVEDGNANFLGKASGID
T1 sequence (Q02153 1-619): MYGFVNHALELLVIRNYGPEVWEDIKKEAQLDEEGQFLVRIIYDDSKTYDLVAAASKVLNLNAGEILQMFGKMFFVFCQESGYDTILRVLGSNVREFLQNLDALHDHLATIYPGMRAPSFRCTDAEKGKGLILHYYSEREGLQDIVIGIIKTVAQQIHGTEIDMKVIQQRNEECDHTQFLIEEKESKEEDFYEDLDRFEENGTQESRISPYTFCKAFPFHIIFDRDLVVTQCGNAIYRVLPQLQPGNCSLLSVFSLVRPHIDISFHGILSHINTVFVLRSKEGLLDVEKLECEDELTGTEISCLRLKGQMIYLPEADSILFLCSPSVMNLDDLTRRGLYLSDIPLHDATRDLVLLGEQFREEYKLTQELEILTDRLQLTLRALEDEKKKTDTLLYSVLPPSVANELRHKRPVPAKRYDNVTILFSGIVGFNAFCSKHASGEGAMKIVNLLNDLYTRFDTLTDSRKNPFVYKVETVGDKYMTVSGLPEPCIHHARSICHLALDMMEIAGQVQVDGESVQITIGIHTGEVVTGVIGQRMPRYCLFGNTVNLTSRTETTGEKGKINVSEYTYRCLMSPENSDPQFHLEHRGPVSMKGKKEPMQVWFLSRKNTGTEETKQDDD
Method: (§1) Data were normalized to a high control using the following equation: 100*(Sample—Low Control)/(High Control—Low Control), where the low control is the average of 16 samples treated with 1% DMSO, and the high control is the average of 16 samples treated with 30 μM of Compound Y depicted below. Data were fit using a 4-parameter fit (log(agonist) vs. response variable slope) using GraphPad Prism Software v.5. n=2 for all compounds. […] Compounds failing to elicit a minimum response of 50% are reported as >30 μM. For compounds run in duplicate or n higher than 2, the result herein given is the geometric mean of the several results obtained.
Human embryonic kidney cells (HEK293) cells expressing GloSensor™ 40F cGMP (Part No: CS182801, Promega) were used to evaluate the activity of test compounds. The luminescent biosensors (engineered luciferase) that were incorporated into these cells detect cGMP formed by the compounds stimulating the sGC enzyme and emit luminescence.
cGMP GloSensor cells were maintained in Dulbecco's Modification of Eagle's Medium (DMEM) supplemented with fetal bovine serum (FBS) (10% final) and hygromycine (200 μg/ml). The day before assay, cells were plated in DMEM with 10% FBS in a 50 μL volume at a density of 1.5×10^4 cells/well in a poly-D-lysine coated 384-well flat white-bottom plate (Corning Cat No 35661). Cells were incubated overnight at 37° C. in a humidified chamber with 5% CO2. The next day, medium was removed and cells were replaced with 40 μl/well of GloSensor™, […] (Promega Cat No E1291). Cells were treated for 90 minutes at 25° C. to allow the substrate to equilibrate in the cells. Test compounds and Diethylenetriamine NONOate (DETA-NONOate) was diluted to […] in serum-free CO2 independent medium and serally diluted at 4× dilutions to create 5× dose curve from which 10 ul was added to the wells (x uM concentration for test compound solution and 10 μM concentration for DETA-NONOate solution; wherein x is one of the following final concentrations).
For the kinetics studies, luminescense was measured right away for 0.2 sec per well with Envision (Perkin Elmer model No). For endpoint SAR screening, data were collected after 55 min incubation at room temperature.
Data analysis was carried out as indicated above in Example 2A.

[2] = target: T2, soluble guanylate cyclase (sGC) (Homo sapiens, UniProt Q02108+Q02153); assay: sGC-HEK-cGMP assay with LC/MS detection (Example 2A); type: cell-based; conditions: HEK293 cells, 10 μM DETA-NONOate, 20 min; concentration eliciting 50% of high control response (30 μM Compound Y); read-out: Absolute EC50 (nM) - binned
T2 construct: endogenously expressing soluble guanylate cyclase (sGC); endogenous in cells; host or cells: HEK293
T2 sequence (Q02108 1-690): T1 sequence (Q02108 1-690)
T2 sequence (Q02153 1-619): T1 sequence (Q02153 1-619)
Method: Human embryonic kidney cells (HEK293), endogenously expressing soluble guanylate cyclase (sGC), were used to evaluate the activity of test compounds. Compounds stimulating the sGC enzyme should cause an increase in the intracellular concentration of cGMP. HEK 293 cells were seeded in Dulbecco's Modification of Eagle's Medium supplemented with fetal bovine serum (10% final) and penicillin (100 U/mL)/streptomycin (100 μg/mL) in a 50 μL, volume at a density of 1.5×10^4 cells/well in a poly-D-lysine coated 384 well flat bottom plate. Cells were incubated overnight at 37° C. in a humidified chamber with 5% CO2. Medium was aspirated and cells were washed with 1× Hank's Buffered Saline Salt Solution (50 μL). Cells were then incubated for 15 minutes at 37° C. with 50 μL of a 0.5 mM 3-isobutyl-1-methylxanthine (IBMX) solution. Test article and Diethylenetriamine NONOate (DETA-NONOate) solutions (x μM concentration for test article solution and 10 μM concentration for DETA-NONOate solution; wherein x is one of the following concentrations);
were then added to the assay mixture and the resulting mixture incubated at 37° C. for 20 minutes. After the 20 minute incubation, the assay mixture was aspirated and 10% acetic acid containing 150 ng/mL+3-cGMP (internal standard for LCMS) (50 μL) was added to the cells. The plate was incubated at 4° C. for 30 minutes in the acetic acid solution to stop the reaction and lyse the cells. The plates were then centrifuged at 1,000 g for 3 minutes at 4° C. and the supernatant transferred to a clean reaction plate for LCMS analysis.
cGMP concentrations were determined from each sample using the LCMS conditions below (Table 2) and calculated standard curve. The standard curve was prepared in 10% acetic acid with 150 ng/mL+3cGMP (isotopically labelled cGMP with a weight 3 units higher than wild type) with the following final concentrations of cGMP in ng/mL: 1, 5, 10, 50, 100, 250, 500, 1000, 2000.
as §1

[3] = system: Guinea pig tracheal smooth muscle; assay: Electrical field stimulated guinea pig tracheal smooth muscle contraction (ex vivo); conditions: sub-maximal EFS, cumulative dose response curve, three animals pooled; 95% Cl 0.78-0.94; read-out: IC50 (inhibition of EFS-induced baseline contraction)
From the text: Electrical Field Stimulated Guinea Pig Tracheal Smooth Muscle In Vitro (ex vivo) Model for the Assessment of Bronchodilation.
Animals: Guinea pig, Dunkin Hartley, male, Full barrier-bred and certified free of specific micro-organisms on receipt 525-609 g on the experimental day, Harlan UK Ltd. Guinea pigs are housed in a group of 4 in solid-bottomed cages with Gold Flake bedding in a controlled environment (airflow, temperature and humidity). Food (FD1, Special Diet Services) and water are provided ad libitum.
On each experimental day, a guinea pig is killed by exposure to a rising concentration of CO2 and the trachea removed. […] Tissues are washed with Kreb's buffer and stimulated using the previously determined sub-maximal voltage for 1 hour to establish a stable baseline contraction prior to assessment of compound activity.
A cumulative dose response curve (DRC) to each test substance is then performed and changes in smooth muscle contraction measured. The effect of each test substance in each experiment is expressed as a percentage inhibition of the baseline contraction, normalized to the relevant vehicle controls. […] The data from all three experiments are pooled, the DRC plotted, and the test substance potency and efficacy determined.

obese mice = conditions: cited from earlier work

Row | Structure (SMILES) | pulmonary vasodilation [1] | effect on mean arterial pressure [1] | transpulmonary cGMP release [1] | other results
1 | Nc1nc(-c2nn(Cc3ccccc3F)c3ncccc23)nc(N)c1N1CCOCC1 [BAY 41-8543] | dose dependent pulmonary vasodilation | without significant effect | increased transpulmonary cGMP release | systemic arterial oxygenation [1]: increased systemic arterial oxygenation
2 | Cc1cc(-c2ncc3c(n2)NC(=O)C3(C)C)nn1Cc1ccccc1F [Compound I-72] |  |  |  | EC50 (sGC enzyme): < 100 nM and 100 to 1000 nM; EC50 [2]: > 1000 nM
3 | O=C(O)CCCCN(CCc1ccccc1OCc1ccc(CCc2ccccc2)cc1)Cc1ccc(C(=O)O)cc1 [BAY 58-2667] | dose dependent pulmonary vasodilation | without significant effect | increased transpulmonary cGMP release | systemic arterial oxygenation [1]: increased systemic arterial oxygenation
4 | Nc1nc(-c2nn(Cc3ccccc3F)c3ncccc23)ncc1C1CC1 [BAY 41-2272] | dose dependent pulmonary vasodilation | without significant effect | increased transpulmonary cGMP release | 
5 | CC(C)[N+]1(C)[C@@H]2CC[C@H]1CC(OC(=O)C(CO)c1ccccc1)C2 (some centres unmarked) [Ipratropium bromide] |  |  |  | IC50 [3]: 0.86 nM
6 | O=C(O)CCCCN(CCc1cc(F)ccc1OCc1ccc(-c2ccc(C(F)(F)F)cc2)cc1)Cc1ccc(C(=O)O)cc1 [BAY 60-2770] |  |  |  | effect on overactive bladder (obese mice): ameliorates overactive bladder
7 | Cc1cc(-c2nc(N)c3c(n2)NC(=O)C3(C)C)nn1Cc1ccccc1F [Compound I-71, 4-amino-2-(1-(2-fluorobenzyl)-5-methyl-1H-pyrazol-3-yl)-5,5-dimethyl-5H-pyrrolo[2,3-d]pyrimidin-6(7H)-one] |  |  |  | EC50 (sGC enzyme): 100 to 1000 nM; EC50 [2]: > 1000 nM
